Experimental data taken from patent US10407395B2, “Benzimidazole compound and medical use thereof” (Sumitomo Dainippon Pharma Co., Ltd., priority 2015, dated 2019).

What follows are compounds tested against human SCN9A (Nav 1.7) (Homo sapiens, UniProt Q15858) (assay: Measurement of Na ion current (Nav 1.7) by automated patch clamp assay in cells stably-expressing human SCN9A). Conditions: compound concentration 10 μmol/L; holding potential inactivating 50% Nav 1.7 channel (around −60 mV); read-out: Inhibitory rate (%) of Na ion current.
Format: cell-based
Protocol: Measurement of Na Ion Current in Voltage-Dependent Na Channel Gene Expressed Cell Nav 1.7 current was measured by automated patch clamp assay using cells stably-expressing human SCN9A. Cells Stably-expressing Human SCN9A Tetracycline-induced cells stably-expressing SCN9A were obtained from ChanTest Corporation. […] Next day, the Na ion current was measured by automated patch clamp assay. Electrophysiologic Measurement of Na Ion Current The Na ion current was measured by automated patch clamp assay using the following extracellular solution and intracellular solution. […] The control of the stimulating pulse and the data acquisition were carried out using EPC10 amplifier and Patch Master Software (HEKA). Data were sampled at 10 kHz, and low-pass filtered at 3 kHz. All the measurements were carried out at room temperature. […] The inhibitory rate of the Na ion current by the test compounds was calculated according to the following calculating formula with the peak current value generated by the depolarizing pulse. […] The inhibitory rate of Na ion current by each Example Compound was evaluated.

Chain of human SCN9A (Nav 1.7) (Q15858 whole entry): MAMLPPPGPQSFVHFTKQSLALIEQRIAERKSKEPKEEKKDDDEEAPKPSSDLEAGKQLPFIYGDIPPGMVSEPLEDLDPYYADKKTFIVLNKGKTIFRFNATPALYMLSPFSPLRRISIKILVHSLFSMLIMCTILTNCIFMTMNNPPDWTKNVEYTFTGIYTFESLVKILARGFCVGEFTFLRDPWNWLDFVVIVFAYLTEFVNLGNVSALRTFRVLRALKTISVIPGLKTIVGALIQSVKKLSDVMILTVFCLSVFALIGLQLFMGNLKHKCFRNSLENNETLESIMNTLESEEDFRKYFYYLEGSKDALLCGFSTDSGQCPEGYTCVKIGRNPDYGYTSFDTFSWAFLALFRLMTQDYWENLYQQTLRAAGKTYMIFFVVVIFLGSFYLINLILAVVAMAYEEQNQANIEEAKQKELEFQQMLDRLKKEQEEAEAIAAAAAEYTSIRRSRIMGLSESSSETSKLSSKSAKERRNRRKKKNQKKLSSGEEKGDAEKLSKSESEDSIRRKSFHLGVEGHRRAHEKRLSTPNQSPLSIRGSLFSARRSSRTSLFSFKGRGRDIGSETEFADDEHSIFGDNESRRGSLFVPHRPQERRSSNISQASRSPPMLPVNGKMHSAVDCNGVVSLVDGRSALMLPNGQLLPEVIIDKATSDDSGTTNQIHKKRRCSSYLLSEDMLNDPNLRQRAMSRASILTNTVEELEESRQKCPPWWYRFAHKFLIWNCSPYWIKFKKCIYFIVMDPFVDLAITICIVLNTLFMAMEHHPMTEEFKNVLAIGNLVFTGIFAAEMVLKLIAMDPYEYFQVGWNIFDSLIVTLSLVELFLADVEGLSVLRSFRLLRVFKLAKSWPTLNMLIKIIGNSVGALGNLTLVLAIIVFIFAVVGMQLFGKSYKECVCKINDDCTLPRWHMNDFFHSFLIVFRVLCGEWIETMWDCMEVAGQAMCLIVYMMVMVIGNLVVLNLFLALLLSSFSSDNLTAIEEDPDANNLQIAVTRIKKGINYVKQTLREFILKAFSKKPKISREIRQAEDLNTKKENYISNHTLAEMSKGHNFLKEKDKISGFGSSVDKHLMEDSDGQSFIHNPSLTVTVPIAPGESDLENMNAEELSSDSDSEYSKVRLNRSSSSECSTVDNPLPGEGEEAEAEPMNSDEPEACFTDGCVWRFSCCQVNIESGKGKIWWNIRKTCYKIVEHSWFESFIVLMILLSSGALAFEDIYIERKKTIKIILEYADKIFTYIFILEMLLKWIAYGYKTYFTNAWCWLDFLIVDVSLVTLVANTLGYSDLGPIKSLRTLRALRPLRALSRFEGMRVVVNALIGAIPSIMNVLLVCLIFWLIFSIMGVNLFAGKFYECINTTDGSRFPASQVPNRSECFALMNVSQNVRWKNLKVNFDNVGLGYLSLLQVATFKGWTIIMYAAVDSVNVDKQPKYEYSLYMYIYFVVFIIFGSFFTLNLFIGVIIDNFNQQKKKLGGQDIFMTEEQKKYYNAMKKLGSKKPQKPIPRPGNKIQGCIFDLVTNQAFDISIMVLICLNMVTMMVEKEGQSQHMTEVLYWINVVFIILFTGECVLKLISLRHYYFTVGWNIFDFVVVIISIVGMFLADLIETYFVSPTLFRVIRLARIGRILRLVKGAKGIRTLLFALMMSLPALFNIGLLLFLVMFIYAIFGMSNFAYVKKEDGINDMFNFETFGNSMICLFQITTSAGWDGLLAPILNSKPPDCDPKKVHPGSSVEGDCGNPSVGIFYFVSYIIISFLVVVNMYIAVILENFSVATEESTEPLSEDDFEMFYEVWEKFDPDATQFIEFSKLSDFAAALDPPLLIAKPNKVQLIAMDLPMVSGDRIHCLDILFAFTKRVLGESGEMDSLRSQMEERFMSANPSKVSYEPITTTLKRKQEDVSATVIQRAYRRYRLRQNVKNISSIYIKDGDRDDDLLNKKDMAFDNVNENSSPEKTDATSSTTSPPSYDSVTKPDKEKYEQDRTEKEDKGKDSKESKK

Compound | inhibition at 10 µM
Cc1ccc(Cl)cc1-c1ccc2ncn(CC3(O)COC3)c2c1 [Example 160] | 25%
OC1(Cn2cnc3ccc(-c4cc(C(F)(F)F)ccc4F)cc32)COC1 [Example 161] | 49%
OC1(Cn2cnc3ccc(-c4cc(C(F)(F)F)ccc4Cl)cc32)COC1 [Example 162] | 63%
COc1cc(-c2ccc3ncn(CC4(O)COC4)c3c2)cc(C(F)(F)F)c1 [Example 163] | 47%
Cc1cc(-c2ccc3ncn(CC4(O)COC4)c3c2)cc(C(F)(F)F)c1 [Example 164] | 63%
OC1(Cn2cnc3ccc(-c4cc(F)cc(Cl)c4)cc32)COC1 [Example 165] | 35%
Cc1c(-c2ccc3ncn(CC4(O)COC4)c3c2)cccc1C(F)(F)F [Example 166] | 54%
COc1cccc(-c2ccc3ncn(CC4(O)COC4)c3c2)c1Cl [Example 167] | 71%
OC1(Cn2cnc3ccc(-c4cccc(C(F)(F)F)c4Cl)cc32)COC1 [Example 168] | 77%
Cc1cc(Cl)cc(-c2ccc3ncn(CC4(O)COC4)c3c2)c1 [Example 169] | 46%
CC(C)(O)CCn1cnc2ccc(-c3ccc(F)cc3)cc21 [Example 170] | 32%
CC(C)(O)CCn1cnc2ccc(-c3ccc(Cl)cc3)cc21 [Example 171] | 60%
CC(C)(O)CCn1cnc2ccc(-c3ccc(C(F)(F)F)cc3)cc21 [Example 172] | 64%
CC(C)(O)Cn1cnc2cc(-c3ccc(F)cc3)ccc21 [Example 175, 1-[5-(4-fluorophenyl)-1H-benzimidazol-1-yl]-2-methylpropan-2-ol] | 16%
CC(C)(O)Cn1cnc2cc(-c3ccc(N4CCOCC4)cc3)ccc21 [Example 177] | 54%
CC(C)(O)Cn1cnc2cc(-c3ccc(Cl)cc3)ccc21 [Example 178] | 34%
CC(C)(O)Cn1cnc2cc(-c3ccc(F)c(Cl)c3)ccc21 [Example 190] | 42%
CC(C)(O)Cn1cnc2cc(-c3ccccc3Cl)ccc21 [Example 195] | 31%
CC(C)(O)Cn1cnc2cc(-c3cccc(Cl)c3)ccc21 [Example 196] | 49%
CC(C)(O)Cn1cnc2cc(-c3cc(F)cc(Cl)c3)ccc21 [Example 200] | 52%
CC(C)(O)Cn1cnc2cc(-c3ccc4ocnc4c3)ccc21 [Example 201] | 32%

Compound | inhibition at 10 µM
CC(C)(O)Cn1cnc2cc(-c3cnoc3)ccc21 [Example 202] | 21%
OC1(Cn2cnc3cc(-c4ccc(C(F)(F)F)cc4F)ccc32)COC1 [Example 203] | 26%
OC1(Cn2cnc3cc(-c4ccc(OC(F)(F)F)cc4)ccc32)COC1 [Example 204] | 28%
OC1(Cn2cnc3cc(-c4ccc(C(F)(F)F)cc4Cl)ccc32)COC1 [Example 206] | 69%
OC1(Cn2cnc3cc(-c4ccc(Cl)cc4C(F)(F)F)ccc32)COC1 [Example 207] | 65%
Cc1c(Cl)cccc1-c1ccc2c(c1)ncn2CC1(O)COC1 [Example 208] | 43%
Cc1ccc(Cl)cc1-c1ccc2c(c1)ncn2CC1(O)COC1 [Example 209] | 48%
OC1(Cn2cnc3cc(-c4cc(C(F)(F)F)ccc4F)ccc32)COC1 [Example 210] | 48%
OC1(Cn2cnc3cc(-c4cc(C(F)(F)F)ccc4Cl)ccc32)COC1 [Example 211] | 44%
COc1cc(-c2ccc3c(c2)ncn3CC2(O)COC2)cc(C(F)(F)F)c1 [Example 212] | 55%
Cc1cc(-c2ccc3c(c2)ncn3CC2(O)COC2)cc(C(F)(F)F)c1 [Example 213] | 41%
OC1(Cn2cnc3cc(-c4cc(F)cc(Cl)c4)ccc32)COC1 [Example 214] | 42%
Cc1c(-c2ccc3c(c2)ncn3CC2(O)COC2)cccc1C(F)(F)F [Example 215] | 84%
COc1cccc(-c2ccc3c(c2)ncn3CC2(O)COC2)c1Cl [Example 216] | 53%
OC1(Cn2cnc3cc(-c4cccc(C(F)(F)F)c4Cl)ccc32)COC1 [Example 217] | 60%
Cc1cc(Cl)cc(-c2ccc3c(c2)ncn3CC2(O)COC2)c1 [Example 218] | 53%
CC(C)(O)CCn1cnc2cc(-c3ccc(F)cc3)ccc21 [Example 219] | 40%
CC(C)(O)CCn1cnc2cc(-c3ccc(Cl)cc3)ccc21 [Example 220] | 52%
OC1(Cn2cnc3cc(Oc4ccc(C(F)(F)F)cc4)ccc32)COC1 [Example 226] | 45%
C[C@](O)(CO)Cn1cnc2ccc(Oc3ccc(C(F)(F)F)cn3)cc21 [Example 227, (2R)-2-methyl-3-(6-{[5-(trifluoromethyl)pyridin-2-yl]oxy}-1H-benzimidazol-1-yl)propane-1,2-diol] | 11%

The next lines start with the values.

inhibition at 10 µM | Compound
80% | COc1cc(C(F)(F)F)ccc1-c1ccc2ncn(CCC(C)(C)O)c2c1 [Example 173, 4-{6-[2-methoxy-4-(trifluoromethyl)phenyl]-1H-benzimidazol-1-yl}-2-methylbutan-2-ol]
66% | CC(C)(O)CCn1cnc2ccc(-c3ccc(C(F)(F)F)cc3F)cc21 [Example 174]
73% | COc1cc(C(F)(F)F)ccc1-c1ccc2c(c1)ncn2CC(C)(C)O [Example 176, 1-{5-[2-methoxy-4-(trifluoromethyl)phenyl]-1H-benzimidazol-1-yl}-2-methylpropan-2-ol]
33% | CC(C)(O)Cn1cnc2cc(-c3ccc(C(F)(F)F)nc3)ccc21 [Example 180]
67% | CC(C)(O)Cn1cnc2cc(-c3ccc(C(F)(F)F)cc3)ccc21 [Example 184]
45% | CC(C)(O)Cn1cnc2cc(-c3ccc(Cl)cc3Cl)ccc21 [Example 185]
22% | COc1cc(F)ccc1-c1ccc2c(c1)ncn2CC(C)(C)O [Example 186]
45% | Cc1cc(Cl)ccc1-c1ccc2c(c1)ncn2CC(C)(C)O [Example 187]
51% | CC(C)(O)Cn1cnc2cc(-c3ccc(Cl)cc3F)ccc21 [Example 188]
42% | CC(C)(O)Cn1cnc2cc(-c3cccc(Cl)c3F)ccc21 [Example 189]
52% | CC(C)(O)Cn1cnc2cc(-c3ccc(Cl)cc3C(F)(F)F)ccc21 [Example 191]
78% | CC(C)(O)Cn1cnc2cc(-c3ccc(C(F)(F)F)cc3Cl)ccc21 [Example 192]
23% | CC(C)(O)Cn1cnc2cc(-c3ccc(S(C)(=O)=O)cc3C(F)(F)F)ccc21 [Example 193]
43% | CC(C)(O)Cn1cnc2cc(-c3cccc(C(F)(F)F)c3)ccc21 [Example 194]
33% | CC(C)(O)Cn1cnc2cc(-c3ccccc3OC(F)(F)F)ccc21 [Example 197]
58% | CC(C)(O)Cn1cnc2cc(-c3cccc(OC(F)(F)F)c3)ccc21 [Example 198]
84% | COc1cc(-c2ccc3c(c2)ncn3CC(C)(C)O)cc(C(F)(F)F)c1 [Example 199]
45% | CC(C)(O)CCn1cnc2cc(-c3ccc(C(F)(F)F)cc3)ccc21 [Example 221]
45% | COc1cc(C(F)(F)F)ccc1-c1ccc2c(c1)ncn2CCC(C)(C)O [Example 222]
47% | CC(C)(O)CCn1cnc2cc(-c3ccc(C(F)(F)F)cc3F)ccc21 [Example 223]
53% | CC(C)(O)Cn1cnc2cc(Oc3ccc(C(F)(F)F)cc3F)ccc21 [Example 224, 1-{5-[2-fluoro-4-(trifluoromethyl)phenoxy]-1H-benzimidazol-1-yl}-2-methylpropan-2-ol]
64% | CC(C)(O)Cn1cnc2cc(Oc3ccc(C(F)(F)F)cc3)ccc21 [Example 225]

Same assay, conditions: compound concentration 100 μmol/L (footnoted examples); holding potential inactivating 50% Nav 1.7 channel (around −60 mV); read-out: Inhibitory rate (%) of Na ion current

inhibition at 100 µM | Compound
11% | COc1ccc(-c2ccc3c(c2)ncn3CC(C)(C)O)cn1 [Example 182]
30% | Cc1ccc(-c2ccc3c(c2)ncn3CC(C)(C)O)cn1 [Example 183]
66% | C[C@@H](n1cnc2ccc(Oc3ccc(C(F)(F)F)cn3)cc21)C(C)(C)O [Example 228, (3R)-2-methyl-3-(6-{[5-(trifluoromethyl)pyridin-2-yl]oxy}-1H-benzimidazol-1-yl)butan-2-ol]
